In US8686044B2, “Amide derivative, pest control agent containing the amide derivative, and use of the amide derivative” (Mitsui Chemicals Agro, Inc., priority 2008, dated 2014):

Assays:
Format in all cases: in vivo
Spodoptera litura = test: Pesticidal test against Spodoptera litura (cabbage leaf dip); settings: foliar, 144 h, concentration 1 ppm, 2-stage larvae, examined after 6 days, 25° C., read-out: pesticidal rate
Summary of the method: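 Cabbage leaf pieces dipped 30 seconds in compound solution at a predetermined concentration and air-dried, then offered to second-stage larvae, five per group in two replicates. Held at 25° C. Living and dead larvae counted after 6 days.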

Plutella xylostella = test: Pesticidal test against Plutella xylostella (cabbage leaf dip); settings: foliar, 144 h, concentration 1 ppm, 2-stage larvae, examined after 6 days, 25° C., read-out: pesticidal rate
Summary of the method: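 Second-stage larvae (5 per group, two replicates) were released onto air-dried cabbage leaf discs that had been immersed for 30 seconds in compound solution at a set concentration. Mortality was scored after 6 days at 25° C.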

Adoxophyes honmai = test: Pesticidal test against Adoxophyes honmai (artificial feed dip); settings: 144 h, concentration 1 ppm, 2-stage larvae, examined after 6 days, 25° C., read-out: pesticidal rate
Summary of the method: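 Second-instar larvae, five per group in duplicate, were released onto air-dried feed slices previously immersed for 30 s in compound solution at a set concentration. Mortality was scored on day 6 at 25° C.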

Choristoneura magnanima = test: Pesticidal test against Choristoneura magnanima (artificial feed dip); settings: 144 h, concentration 1 ppm, 2-stage larvae, examined after 6 days, 25° C., read-out: pesticidal rate
Summary of the method: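 Second-stage larvae, five per group in duplicate, fed artificial diet that had been immersed 30 s in test solution at a predetermined concentration and air-dried. Mortality scored at day 6, 25° C.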

Helicoverpa armigera = test: Pesticidal test against Helicoverpa armigera (cabbage leaf disk dip); settings: foliar, 72 h, concentration 1 ppm, 2-stage larvae, examined after 3 days, 25° C., read-out: pesticidal rate
Summary of the method: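 Cabbage leaf disks were dipped for 30 s in test solution at a set concentration and air-dried. Second-instar larvae were placed one per hole and held at 25 °C, with live and dead counts taken after 3 days. Five larvae per group were tested in two replicates.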

Laodelphax striatellus = test: Pesticidal test against Laodelphax striatellus (rice seedling spray); settings: 144 h, concentration 100 ppm, 3-stage larvae, examined after 6 days, 25° C., read-out: pesticidal rate
Summary of the method: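 Rice seedlings sprayed with 2.5 ml acetone solution of compound at a predetermined concentration, air-dried, then infested with third-stage Laodelphax striatellus larvae in capped water-containing tubes at 25 °C. Living and dead insects counted after 6 days; ten larvae per group, two replicates.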

Musca domestica = test: Pesticidal test against Musca domestica (petri dish dry film); settings: 24 h, concentration 100 ppm, female adults, examined after 1 day, 25° C., read-out: pesticidal rate
Summary of the method: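 Female adult houseflies were confined at 25° C in capped 9 cm petri dishes coated with an air-dried film from 1 ml acetone solution of compound (predetermined concentration). Mortality was scored 1 day later, two replicates of five per group.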

Coptotermes formosanus = test: Pesticidal test against Coptotermes formosanus (treated filter paper); settings: 120 h, concentration 30 ppm, examined after 5 days of treatment, 28° C., read-out: pesticidal rate
Procedure: Pesticidal Test against Coptotermes formosanus
20 μl of an acetone solution in which a test compound had been prepared at a predetermined concentration was added dropwise to the filter paper having a diameter of […] included in a polypropylene cup, and air-dried, and then 20 μl of water was added thereto. Coptotermes formosanus was released and the cup was capped. They were left to stand in a thermostatic chamber at 28° C., and the numbers of the living pests and the dead pests were examined after 5 days of treatment. The test was carried out with ten larvae per group in two replicates.

Ctenocephalides Felis = test: Insecticidal test for Ctenocephalides felis, Test Example 1 (dry film in glass tube, 0.5 ml, Table A4); settings: adults; for pest or weed control at 0.1 µg/mL: Ctenocephalides felis, concentration 0.1 μg/ml, after 24 hours of the exposure, in triplicate, read-out: death rate
Procedure: Insecticidal Test for Ctenocephalides Felis
0.5 ml of a solution of acetone, the active ingredient, prepared to the prescribed concentration was added dropwise to a glass tube with a flat bottom (internal diameter: 2.6 cm, bottom area: 5.3 cm^2, height: 12 cm), and the solvent was evaporated at room temperature to form a dry film of the agent on the bottom surface. About 10 adults of Ctenocephalides Felis per glass tube were added, and the adults were contact-exposed to the test compound. After 24 hours of the exposure, the conditions of the adults were examined and classified into “alive” and “dead (including a moribund condition)” to determine the death rate (in triplicate).
As the comparative compounds, the following Compounds (A), (B), and (C) disclosed in WO2009/080203, and fipronil were used.

SMILES | pest or weed control at 1 ppm (Spodoptera litura) [%] | pest or weed control at 1 ppm (Plutella xylostella) [%] | pest or weed control at 1 ppm (Adoxophyes honmai) [%] | pest or weed control at 1 ppm (Choristoneura magnanima) [%] | pest or weed control at 1 ppm (Helicoverpa armigera) [%] | pest or weed control at 100 ppm (Laodelphax striatellus) [%] | pest or weed control at 100 ppm (Musca domestica) [%] | pest or weed control at 30 ppm (Coptotermes formosanus) [%] | pest or weed control at 0.1 µg/mL (Ctenocephalides Felis) [%] | speed of effect as compared with the fipronil (Ctenocephalides Felis; compared with fipronil)
CN(C(=O)c1ccccc1)c1cccc(C(=O)Nc2c(Br)cc(C(F)(C(F)(F)F)C(F)(F)F)cc2C(F)(F)F)c1F [7-1574, N-(2-bromo-4-(perfluoropropan-2-yl)-6-(trifluoromethyl)phenyl)-2-fluoro-3-(N-methylbenzamide)benzamide] | ≥ 70 | ≥ 70 | ≥ 70 | ≥ 70 | ≥ 70 | ≥ 70 | ≥ 70 | ≥ 70 | 100 | immediate effect
CN(C(=O)c1ccc(F)cc1)c1cccc(C(=O)Nc2c(I)cc(C(F)(C(F)(F)F)C(F)(F)F)cc2C(F)(F)F)c1F [7-1733, 2-fluoro-3-(4-fluoro-N-methylbenzamide)-N-(2-iodo-4-(perfluoropropan-2-yl)-6-(trifluoromethyl)phenyl)benzamide] | ≥ 70 | ≥ 70 | ≥ 70 | ≥ 70 | ≥ 70 | ≥ 70 | ≥ 70 | ≥ 70 | 100 | –
